Molecules are shown by their SMILES.

This test concerns the target T1, Amine oxidase [flavin-containing] A (Homo sapiens, UniProt P21397).
T1 sequence (P21397 whole entry): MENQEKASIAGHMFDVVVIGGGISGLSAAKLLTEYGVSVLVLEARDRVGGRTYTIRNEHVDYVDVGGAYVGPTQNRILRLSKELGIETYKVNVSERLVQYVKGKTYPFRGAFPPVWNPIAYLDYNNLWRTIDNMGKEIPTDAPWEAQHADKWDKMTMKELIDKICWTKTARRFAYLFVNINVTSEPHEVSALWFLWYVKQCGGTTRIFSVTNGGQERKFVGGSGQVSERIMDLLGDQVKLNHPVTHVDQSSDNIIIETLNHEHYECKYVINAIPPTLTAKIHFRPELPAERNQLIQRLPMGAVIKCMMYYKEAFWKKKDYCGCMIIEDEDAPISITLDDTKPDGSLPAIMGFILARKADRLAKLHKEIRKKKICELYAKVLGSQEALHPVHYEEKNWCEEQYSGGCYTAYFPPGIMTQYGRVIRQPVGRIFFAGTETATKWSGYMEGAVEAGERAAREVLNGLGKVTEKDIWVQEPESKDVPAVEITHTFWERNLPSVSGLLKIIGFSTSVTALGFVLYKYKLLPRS
The test is described as follows: biochemical. It is filed as cell-based, BTI-TN-5B1-4.
The molecule `CC1CCC/C(=N/Nc2nc(-c3ccccc3)cs2)C1` (centres undefined) registered an IC50 of 37.8 µM. The figure for `C[C@@H]1CCC/C(=N/Nc2nc(-c3ccccc3)cs2)C1` is 38.6 µM.

Molecule `CC1CCC/C(=N/Nc2nc(-c3ccc(Cl)cc3Cl)cs2)C1` (centres undefined) had an IC50 of 43.8 µM.

Turning to `C[C@@H]1CCC/C(=N/Nc2nc(-c3ccc(Cl)cc3Cl)cs2)C1`, the IC50 stood at 40.6 µM.

As for `COc1ccc(-c2csc(N/N=C3/CCC[C@@H](C)C3)n2)cc1`, inhibition was half-maximal at 4.26 µM (IC50). The result for `CC1CCC/C(=N/Nc2nc(-c3ccc(C#N)cc3)cs2)C1` (centres undefined) reads 20.6 µM; that for `C[C@@H]1CCC/C(=N/Nc2nc(-c3ccc(C#N)cc3)cs2)C1`, 21.9 µM.

In turn, `CC1CCC/C(=N/Nc2nc(-c3ccc(Cl)cc3)cs2)C1` (centres undefined) returned an IC50 of 23.1 µM. In turn, `C[C@@H]1CCC/C(=N/Nc2nc(-c3ccc(Cl)cc3)cs2)C1` returned an IC50 of 22.8 µM.

These data come from ChEMBL document CHEMBL1240510, “Synthesis, stereochemical separation, and biological evaluation of selective inhibitors of human MAO-B: 1-(4-arylthiazol-2-yl)-2-(3-methylcyclohexylidene)hydrazines” (J Med Chem, 2010).
